{"source": "patent US20140148498A1", "about": "“METHODS AND COMPOSITIONS FOR THE TREATMENT OF MARFAN SYNDROME AND ASSOCIATED DISORDERS” (THE JOHNS HOPKINS UNIVERSITY, priority 2011, published 2014)", "key": {"AT2KO:Fbn1^C1039G/+ mice": {"tested_on": "AT2KO:Fbn1^C1039G/+ mice", "test": "Aortic root growth by echocardiography, 7 months of treatment, MFS mice lacking AT2", "type": "in vivo", "method": "(§1) A head-to-head comparison of ACEi versus ARBs was performed. Fbn1^C1039G/+ mice and WT littermates were treated with hemodynamically equivalent doses (FIG. 8) of either the ACEi enalapril (10 to 15 mg/kg of body weight per day) or the ARB losartan (40 to 60 mg/kg per day) (R. D. Patten et al., Clin. Sci 104, 109 (2003)), beginning at 8 weeks of age, and were assessed with serial echocardiograms. […] It is noteworthy that losartan reduced aortic root growth in Fbn1^C1039G/+ mice, but had no effect in WT littermates (P=0.27). […] Whether AT2 signaling is needed to achieve losartan's full therapeutic benefit was assessed. AT2KO:Fbn1^C1039G/+ mice were treated with losartan from 8 weeks of age and followed by serial echocardiography until they were killed at 9 months of age (FIG. 2C).\n(§2) All mice were cared for under strict compliance with the Animal Care and Use Committee of the Johns Hopkins University School of Medicine. The Fbn1^C1039G/+ and AT2KO lines were maintained n a pure C57BL/6 background (backcrossed for greater than 9 generations), allowing for valid comparisons. […] Mice that were analyzed for Western Blot analysis had their proximal ascending aortas (root to right brachiocephalic trunk) immediately dissected out, flash frozen in liquid nitrogen and stored at −80d until further processing. Mice that were analyzed for aortic histology had latex injected under low pressure into the left ventricular apex until it was visible in the descending abdominal aorta. Mice that were analyzed for lung histology had their trachea intubated with a 20-gauge blunted needle, and 0.5% agar was infused under a low and constant pressure to gradually inflate the lungs. […]\nMice were started on medication at 8 weeks of age and continued for 7 months. […] Blood pressures were analyzed by taking 20 tail cuff blood pressures per day over 5 days in each mouse to habituate the mice to the tail cuff pressure system, and the blood pressures obtained on the last day were averaged. At least 4 mice for each treatment group were analyzed. […]"}, "JNK1": {"tested_on": "JNK1", "test": "Western blot of proximal ascending aorta: JNK1 activation (Examples 4-5)", "type": "in vivo, mice", "from_the_text": "All mice were cared for under strict compliance with the Animal Care and Use Committee of the Johns Hopkins University School of Medicine. The Fbn1^C1039G/+ and AT2KO lines were maintained n a pure C57BL/6 background (backcrossed for greater than 9 generations), allowing for valid comparisons. In order to further accommodate the potential for temporal- or background-specified variation, all comparisons were made between contemporary littermates when possible. The AT21C0 mice were obtained as a generous gift from Dr. Inagami (T. Ichiki et al., Nature 377, 748 (1995)). The Agtr2 gene resides on the X chromosome and therefore we used either male mice carrying the mutated allele (who are hemizygous) or homozygous females, both of which have been previously shown to be functionally null for the AT2 receptor (T. Ichiki et al., Nature 377, 748 (1995)). Mice were sacrificed with an inhalation overdose of halothane (Sigma-Aldrich, St. Louis). Mice underwent immediate laparotomy, descending abdominal aortic transection, and PBS (pH 7.4) was infused through the right and left ventricles to flush out the blood. Mice that were analyzed for Western Blot analysis had their proximal ascending aortas (root to right brachiocephalic trunk) immediately dissected out, flash frozen in liquid nitrogen and stored at −80d until further processing. Mice that were analyzed for aortic histology had latex injected under low pressure into the left ventricular apex until it was visible in the descending abdominal aorta. Mice that were analyzed for lung histology had their trachea intubated with a 20-gauge blunted needle, and 0.5% agar was infused under a low and constant pressure to gradually inflate the lungs. […]\nMouse aortic root and ascending aortas (aortic root excluding the aortic valve to origin of right brachiocephalic trunk) were harvested, snap-frozen in liquid nitrogen and stored at −80° C. until processed. […] Equal protein loading of samples was determined by a protein assay (BioRad, CA), and confirmed by probing with antibodies against β-Actin or GAPDH (Sigma, Mo.). […]"}, "WT mice": {"tested_on": "WT mice", "test": "Aortic root growth by echocardiography, 7 months of treatment, WT littermates", "type": "in vivo", "method": "as §1, with “AT2KO:Fbn1^C1039G/+ mice were treated with losartan from 8 weeks of age and followed by serial echocardiography until they were killed at 9 months of age (FIG. 2C).” left out\nas §2, with “Medicine.” for “Medicine. The Fbn1^C1039G/+ and AT2KO lines were maintained n a pure C57BL/6 background (backcrossed for greater than 9 generations), allowing for valid comparisons.”"}}, "note": "“Also recorded” adds a separate entry of the source."}
{"smiles": "CCCCc1nc(Cl)c(CO)n1Cc1ccc(-c2ccccc2-c2nn[nH]n2)cc1", "note": "[losartan]", "values": [{"measurement": "Aortic root growth over 7 months of treatment", "setting": "AT2KO:Fbn1^C1039G/+ mice; AT2KO:Fbn1^C1039G/+ mice", "value": "modest reduction in aortic root growth; also recorded: diminished effectiveness"}, {"measurement": "Final absolute aortic root diameter", "setting": "AT2KO:Fbn1^C1039G/+ mice; AT2KO:Fbn1^C1039G/+ mice, 7 months of treatment, FIG. 2C, mean +/- 2 SEM", "value": "2.06+/−0.07 mm"}, {"measurement": "Decrease in aortic root growth in treated AT2KO:Fbn1^C1039G/+ mice relative to that seen in Fbn1^C1039G/+ animals that expressed AT2", "setting": "AT2KO:Fbn1^C1039G/+ mice; losartan from 8 weeks to 9 months of age, P<0.001", "value": 40, "unit": "%"}, {"measurement": "JNK1 activation", "setting": "JNK1; Fbn1^C1039G/+ mice, FIG. 13", "value": "small reduction in JNK1 activation; also recorded: modest reduction in JNK1 activation"}, {"measurement": "JNK1 activation", "setting": "JNK1; treated AT2KO:Fbn1^C1039G/+ versus treated Fbn1^C1039G/+ mice, FIG. 14", "value": "no significant change; also recorded: no significant difference"}, {"measurement": "Aortic root growth over 7 months of treatment", "setting": "WT mice; WT littermates", "value": "had no effect"}, {"measurement": "Final absolute aortic root diameter", "setting": "WT mice; WT mice, 7 months of treatment, FIG. 2B, mean +/- 2 SEM", "value": "1.77+/−0.15 mm"}]}
